{"source": "paper PMC6156125", "about": "“Chemistry and Hypoglycemic Activity of GPR119 Agonist ZB-16” (Frontiers in Endocrinology, 2018)", "key": {"hERG potassium channels": {"target": "T1, hERG potassium channels (Homo sapiens, UniProt Q12809)", "T1 construct": "purchased Invitrogen Corporation, Carlsbad, CA, USA", "T1 sequence (Q12809 whole entry)": "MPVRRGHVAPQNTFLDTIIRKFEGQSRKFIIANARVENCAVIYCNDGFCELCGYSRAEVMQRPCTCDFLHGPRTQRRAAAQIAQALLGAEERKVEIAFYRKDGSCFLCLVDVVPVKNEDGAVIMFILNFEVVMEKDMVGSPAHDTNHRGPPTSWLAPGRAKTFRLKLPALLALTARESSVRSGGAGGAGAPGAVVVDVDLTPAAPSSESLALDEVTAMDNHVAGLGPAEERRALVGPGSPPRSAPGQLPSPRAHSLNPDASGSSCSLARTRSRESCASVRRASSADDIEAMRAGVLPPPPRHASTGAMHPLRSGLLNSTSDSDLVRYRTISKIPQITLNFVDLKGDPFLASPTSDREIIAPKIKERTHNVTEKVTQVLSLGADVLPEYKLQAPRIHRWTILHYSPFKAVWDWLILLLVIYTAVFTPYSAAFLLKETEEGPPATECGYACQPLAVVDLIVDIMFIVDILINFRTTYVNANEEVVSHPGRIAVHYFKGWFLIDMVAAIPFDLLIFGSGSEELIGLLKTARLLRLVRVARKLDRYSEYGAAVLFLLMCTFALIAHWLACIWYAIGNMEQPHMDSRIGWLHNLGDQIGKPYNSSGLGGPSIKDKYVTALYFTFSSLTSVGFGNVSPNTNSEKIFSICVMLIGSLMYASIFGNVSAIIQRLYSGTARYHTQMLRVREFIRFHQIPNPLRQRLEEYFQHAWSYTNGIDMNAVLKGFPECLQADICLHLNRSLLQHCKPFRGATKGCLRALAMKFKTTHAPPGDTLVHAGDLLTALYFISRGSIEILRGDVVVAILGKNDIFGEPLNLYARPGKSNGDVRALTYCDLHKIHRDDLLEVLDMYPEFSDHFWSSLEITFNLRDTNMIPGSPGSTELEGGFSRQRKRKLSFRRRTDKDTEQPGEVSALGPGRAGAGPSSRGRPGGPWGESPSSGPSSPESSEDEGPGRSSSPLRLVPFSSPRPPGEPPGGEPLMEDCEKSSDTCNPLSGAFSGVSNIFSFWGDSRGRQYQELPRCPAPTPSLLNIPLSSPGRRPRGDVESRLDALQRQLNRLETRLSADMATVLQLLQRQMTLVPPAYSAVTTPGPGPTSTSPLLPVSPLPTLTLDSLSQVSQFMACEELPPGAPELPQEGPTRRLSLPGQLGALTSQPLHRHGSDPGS", "assay": "Cardiac toxicity, Predictor hERG fluorescence polarization binding", "method": "Cardiac toxicity was evaluated by estimating the influence of each substance on hERG potassium channels using the in vitro test system Invitrogen® PredictorTM hERG (Invitrogen Corporation, Carlsbad, CA, USA), containing Predictor hERG membrane preparations, fluorescent tracer stock solution and an assay buffer solution. Experimental procedures were conducted in accordance with the PredictorTM hERG test system's manufacturer instructions. Assays were performed in 384-well microplates. Each well contained 5 μL aliquot of each concentration of test compound, 10 μL of (2X) membrane preparation and 5 μL of working tracer solution. The cumulative reaction volume was 20 μl with 1% of DMSO ([19]). All procedures were performed at 4 replicates for each concentration. The plate was allowed to incubate at room temperature for at least 1 h prior to fluorescence polarization measurements performed with a microplate reader Infinite M1000 PRO (Tecan)."}, "[1]": {"test_system": "rats with streptozotocin-nicotinamide (STZ-NA) induced T2D", "assay": "Hypoglycemic activity after single oral administration in T2D rat model", "assay_type": "in vivo", "conditions": "single oral 1 mg/kg, fasted STZ-NA T2D rats, over a 3 h period", "method": "Procedures were performed in 40 female Wistar rats weighing 250–280 g. Streptozotocin-nicotinamide-induced rat model of T2D was used ([24], [25]). Briefly, streptozotocin (Sigma, St. Louis, MO, USA) was administered i.p. to overnight fasted rats (65 mg/kg in 100 mmol/l citrate buffer, Ph 4.5). Nicotinamide (Sigma, St. Louis, MO, USA) (230 mg/kg) dissolved in saline was administered i.p. 15 min before streptozotocin. STZ-NA T2D had been confirmed 72 h after in rats with blood glucose levels in a range 9–14 mmol/l measured in fasting (6 h) conditions. […] […] For OGTT rats received an oral dose of […] glucose dissolved in saline; blood glucose levels were monitored every 30 min for 2 h after glucose administration. Sitagliptin dose was chosen in accordance with published data ([26])."}, "[2]": {"test_system": "intact fasted female Wistar rats", "assay": "Hypoglycemic action in intact rats after single oral administration", "assay_type": "in vivo, rat", "conditions": "0.1–1 mg/kg oral", "method": "Blood glucose levels were evaluated in the peripheral blood (from the tail vein) of intact fasted (6 h) female Wistar rats using a glucometer Contour TS (Bayer, Germany) at 60, 120, and 180 min after single oral administration of each ZB-09 analogs (in doses of 0.1, 1, and 10 mg/kg). The female animals were used because of their advantages in toxicological studies shown by several authors ([23])."}, "[3]": {"assay": "Pharmacokinetics in vivo after single oral or intravenous administration", "design": "species or system rat", "conditions": "rats, 10 mg/kg; for Vd: read-out: Vz", "method": "The pharmacokinetics of ZB-16 in a dose of 10 mg/kg after single oral or intravenous administration was studied in 6 male Wistar rats weighing 250–280 g. The blood from the tail vein (200 μL) was collected before and at 0, 0.25, 0.5, 1, 2, 4, 8, 12, and 24 h after ZB-16 administration. The blood concentrations of the test compounds in animals were evaluated using HPLC-MS/MS. Basic pharmacokinetic parameters were calculated using a non-model method and WinNonlin Professional 6.0 (Pharsight Corporation, Mountain View, CA, USA) based on the experimental concentration-time data obtained on each animal."}, "[4]": {"test_system": "male Wistar rats with streptozotocin-nicotinamide induced type 2 diabetes mellitus (STZ-NA T2D)", "design": "method as in PMID 28736546", "conditions": "1 mg/kg/day orally for 28 day, ref [11]; cited from earlier work"}, "[5]": {"assay": "Biotransformation in vitro, microsomal stability (rat)", "assay_type": "in vitro ADME", "method": "The metabolism of the compounds was studied in commercially available microsomal fractions derived from human and rat hepatocytes. Test compounds (0.5 μM) were incubated with microsomal fractions in the presence of NADPH during 30 min in a shaker at 37°C. Reactions were stopped at 0, 5, 10, 15, and 30 min by adding acetonitrile. After proteins precipitation, the remaining amount of the test compound in the supernatant was detected with high performance liquid chromatography tandem-mass spectrometry (HPLC-MS/MS) method using Agilent 1260 liquid chromatograph (Agilent Technologies, Santa Clara, CA, USA) and a QTRAP6500 triple quadrupole mass spectrometer with a TurboIonSpray electro-spraying module (ABSciex, Foster City, CA, USA) ([15]). Incubation was performed twice, with at least 2 measurements for each replicate (n ≥ 3). The half-life (T1/2), the clearance in vitro (CLint) and the remaining amount of substance (% of initial quantity) were calculated."}, "[6]": {"conditions": "male, Wistar, rat, plasma, iv, i.v. injection, Mean ± SD (n = 3)"}, "[7]": {"conditions": "male, Wistar, rat, plasma, iv, i.v. injection, individual rat"}, "[8]": {"conditions": "male, Wistar, rat, plasma, po, oral administration, Mean ± SD (n = 3)"}, "[9]": {"conditions": "male, Wistar, rat, plasma, po, oral administration, individual rat"}, "[10]": {"conditions": "oral administration, individual rat"}}, "note": "Several values for one entry are separate records, joined by “and”; a condition that tells them apart may be missing. Equal entries are not always repeated. Where two headings read alike, the source gives them in different places.", "data": [{"smiles": "O=S1(=O)COc2cc(-c3ccc(OCC4CCN(c5ncc(Cl)cn5)CC4)c(F)c3)ccc21", "note": "[ZB-16]", "values": [{"measurement": "Average polarization mP (n = 4)", "setting": "hERG potassium channels; 1 μM", "result": 264, "unit": "mP"}, {"measurement": "Unbound hERG %", "setting": "hERG potassium channels; 1 μM", "result": 89, "unit": "%"}, {"measurement": "Average polarization mP (n = 4)", "setting": "hERG potassium channels; 10 μM", "result": 244, "unit": "mP"}, {"measurement": "Unbound hERG %", "setting": "hERG potassium channels; 10 μM", "result": 77, "unit": "%"}, {"measurement": "decrease of blood glucose levels", "setting": "[1]", "result": 24, "unit": "%"}, {"measurement": "blood glucose levels after single oral administration", "setting": "[2]", "result": "significant decrease"}, {"measurement": "AUC(0-t)", "setting": "[3]; male, Wistar, plasma, iv, i.v. injection, individual rat, read-out: AUC 0-t", "result": 244, "unit": "ng·h/mL"}, {"measurement": "Tmax", "setting": "[3]; male, Wistar, plasma, oral administration, individual rat", "result": 4, "unit": "h"}, {"measurement": "half-life", "setting": "[3]; male, Wistar, rat, plasma, read-out: half-life", "result": "> 12", "unit": "h"}, {"measurement": "bioavailability", "setting": "[3]; male, Wistar, rat, plasma, oral vs i.v., read-out: absolute bioavailability", "result": 8, "unit": "%"}, {"measurement": "AUC(0-inf)", "setting": "[3]; [6]", "result": "339 ± 97.2", "unit": "ng·h/mL"}, {"measurement": "clearance", "setting": "[3]; [6]", "result": 100, "unit": "mL/min/kg"}, {"measurement": "k el", "setting": "[3]; [6]", "result": "1.39e-05", "unit": "s⁻¹"}, {"measurement": "AUC(0-t)", "setting": "[3]; male, Wistar, rat, plasma, iv, i.v. injection, Mean ± SD (n = 3), read-out: AUC 0-t", "result": "218 ± 30.4", "unit": "ng·h/mL"}, {"measurement": "C0", "setting": "[3]; male, Wistar, rat, plasma, iv, i.v. injection, Mean ± SD (n = 3), read-out: C0", "result": "32 ± 8.7", "unit": "ng/mL"}, {"measurement": "MRT last", "setting": "[3]; male, Wistar, rat, plasma, iv, i.v. injection, Mean ± SD (n = 3), read-out: MRT last", "result": "9 ± 1", "unit": "h"}, {"measurement": "Vd", "setting": "[3]; [6]", "result": "123 ± 18.1", "unit": "L/kg"}, {"measurement": "half-life", "setting": "[3]; male, Wistar, rat, plasma, iv, i.v. injection, Mean ± SD (n = 3), read-out: t1/2 (converted)", "result": "15 ± 5.8", "unit": "h"}, {"measurement": "AUC(0-inf)", "setting": "[3]; [7]", "result": 441, "unit": "ng·h/mL"}, {"measurement": "clearance", "setting": "[3]; [7]", "result": 83.3, "unit": "mL/min/kg"}, {"measurement": "k el", "setting": "[3]; [7]", "result": "8.33e-06", "unit": "s⁻¹"}, {"measurement": "AUC(0-t)", "setting": "[3]; male, Wistar, rat, plasma, iv, i.v. injection, individual rat, read-out: AUC 0-t", "result": 226, "unit": "ng·h/mL"}, {"measurement": "C0", "setting": "[3]; male, Wistar, rat, plasma, iv, i.v. injection, individual rat, read-out: C0", "result": 29, "unit": "ng/mL"}, {"measurement": "MRT last", "setting": "[3]; male, Wistar, rat, plasma, iv, i.v. injection, individual rat, read-out: MRT last", "result": 10, "unit": "h"}, {"measurement": "Vd", "setting": "[3]; [7]", "result": 139, "unit": "L/kg"}, {"measurement": "half-life", "setting": "[3]; male, Wistar, rat, plasma, iv, i.v. injection, individual rat, read-out: t1/2 (converted)", "result": 21, "unit": "h"}, {"measurement": "AUC(0-inf)", "setting": "[3]; [8]", "result": "119 ± 11.9", "unit": "ng·h/mL"}, {"measurement": "k el", "setting": "[3]; [8]", "result": "1.67e-05", "unit": "s⁻¹"}, {"measurement": "AUC(0-t)", "setting": "[3]; male, Wistar, rat, plasma, po, oral administration, Mean ± SD (n = 3), read-out: AUC 0-t", "result": "85 ± 17.6", "unit": "ng·h/mL"}, {"measurement": "Cmax", "setting": "[3]; male, Wistar, rat, plasma, po, oral administration, Mean ± SD (n = 3), read-out: Cmax", "result": "6 ± 1.2", "unit": "ng/mL"}, {"measurement": "MRT last", "setting": "[3]; male, Wistar, rat, plasma, po, oral administration, Mean ± SD (n = 3), read-out: MRT last", "result": "9 ± 1", "unit": "h"}, {"measurement": "half-life", "setting": "[3]; male, Wistar, rat, plasma, po, oral administration, Mean ± SD (n = 3), read-out: t1/2 (converted)", "result": "13 ± 5.2", "unit": "h"}, {"measurement": "AUC(0-inf)", "setting": "[3]; [9]", "result": 124, "unit": "ng·h/mL"}, {"measurement": "k el", "setting": "[3]; [9]", "result": "1.11e-05", "unit": "s⁻¹"}, {"measurement": "AUC(0-t)", "setting": "[3]; male, Wistar, rat, plasma, po, oral administration, individual rat, read-out: AUC 0-t", "result": 69, "unit": "ng·h/mL"}, {"measurement": "Cmax", "setting": "[3]; male, Wistar, rat, plasma, po, oral administration, individual rat, read-out: Cmax", "result": 4, "unit": "ng/mL"}, {"measurement": "MRT last", "setting": "[3]; male, Wistar, rat, plasma, po, oral administration, individual rat, read-out: MRT last", "result": 10, "unit": "h"}, {"measurement": "half-life", "setting": "[3]; male, Wistar, rat, plasma, po, oral administration, individual rat, read-out: t1/2 (converted)", "result": 19, "unit": "h"}, {"measurement": "AUC 0−∞", "setting": "[3]; i.v. injection, individual rat", "result": "247 ng·h/mL and 329 ng·h/mL"}, {"measurement": "AUC(0-t)", "setting": "[3]; i.v. injection, individual rat", "result": 184, "unit": "ng·h/mL"}, {"measurement": "C0", "setting": "[3]; i.v. injection, individual rat", "result": "26 ng/mL and 42 ng/mL"}, {"measurement": "CL", "setting": "[3]; i.v. injection, individual rat", "result": 130, "unit": "mL/min/kg"}, {"measurement": "Kel", "setting": "[3]; i.v. injection, individual rat", "result": 0.06, "unit": "h⁻¹"}, {"measurement": "MRT last", "setting": "[3]; i.v. injection, individual rat", "result": 8, "unit": "h"}, {"measurement": "Vz", "setting": "[3]; i.v. injection, individual rat", "result": "127 L/kg and 104 L/kg"}, {"measurement": "t1/2", "setting": "[3]; i.v. injection, individual rat", "result": "11 h and 12 h"}, {"measurement": "AUC 0−∞", "setting": "[3]; [10]", "result": "128 ng·h/mL and 105 ng·h/mL"}, {"measurement": "AUC(0-t)", "setting": "[3]; [10]", "result": "104 ng·h/mL and 83 ng·h/mL"}, {"measurement": "Cmax", "setting": "[3]; [10]", "result": 7, "unit": "ng/mL"}, {"measurement": "Kel", "setting": "[3]; [10]", "result": 0.07, "unit": "h⁻¹"}, {"measurement": "t1/2", "setting": "[3]; [10]", "result": 10, "unit": "H"}, {"measurement": "blood glucose levels under fasting conditions", "setting": "[4]", "result": "decreased"}, {"measurement": "glucose utilization", "setting": "[4]", "result": "improved"}, {"measurement": "stimulated secretion of GLP-1 and insulin", "setting": "[4]", "result": "increase"}, {"measurement": "ER", "setting": "[5]; Rat microsomal fraction", "result": 0.58}, {"measurement": "CLh", "setting": "[5]; Rat microsomal fraction, in mL/min/kg (unit assumed)", "result": 32.09}, {"measurement": "microsomal CLint at 0.5 μM", "setting": "[5]; liver microsomal fraction", "result": 42.8, "unit": "µL/min/mg"}, {"measurement": "half-life at 0.5 μM", "setting": "[5]; liver microsomal fraction, 0.5 μM, NADPH, read-out: t1/2, min", "result": 1.08, "unit": "h"}]}]}
